Assay results as given in a melting point compilation (Tetko et al.).

Row | Compound | melting point [°C]
1 | O=C(c1ccc(F)cc1)c1ccc([N+](=O)[O-])cc1 | 87 to 89
2 | O=C(Cl)/C=C/c1ccc(/C=C/C(=O)Cl)cc1 | 171
3 | COc1ccc(C=C(S)C(=O)O)cc1 | 140
4 | CC1(C)CC(=O)CC(C)(C)C1 | 11 to 12
5 | CNC(=O)Sc1ccc(OS(C)(=O)=O)cc1 | 138
6 | COc1cc(OC)c(C(=O)/C=C/c2cc3c(cc2[N+](=O)[O-])OCO3)c(OC)c1 | 224
7 | Clc1ccccc1C=C1c2ccccc2-c2ccccc21 | 69.5
8 | CO[Si](OC)(OC)c1ccccc1 | -25
9 | N#Cc1ccc(C2CCCc3cncn32)cc1 (stereo not drawn) | 117
10 | CCCCCCCCCCCCCCCC(=O)Oc1ccc([N+](=O)[O-])cc1 | 66
11 | O=[N+]([O-])c1ccc(CSc2ncnc3c2ncn3C2OC(CO)C(O)C2O)cc1 (stereo not drawn) | 194 to 196
12 | CCCCI | -103
13 | COc1ccccc1C1CCN(c2ccc(C=O)cc2[N+](=O)[O-])CC1 | 116 to 118
14 | O=[N+]([O-])c1ccccc1C(O)C(O)c1ccccc1 (stereo not drawn) | 100
15 | CN(C)c1ccc(CCC2CCc3ccccc3N2N=O)cc1 (stereo not drawn) | 91
16 | N#Cc1ccc(C=Cc2cccc(C=Cc3ccc(C#N)cc3[N+](=O)[O-])c2)c([N+](=O)[O-])c1 | 298
17 | COC(=O)c1ccc(C(=O)OC)nc1 | 163 to 164
18 | O=[N+]([O-])c1cnccc1O | 271 to 273
19 | O=C1OC(c2ccccc2)=N/C1=C\c1ccc(/C=C2/N=C(c3ccccc3)OC2=O)cc1 | 271

Row | Compound | melting point [°C]
20 | OC(CNc1ccccn1)c1ccccc1 (stereo not drawn) | 83.5
21 | NC(=O)NCCC[C@H](N)C(=O)O | 236
22 | NNC(=O)c1ccc(C(F)(F)F)cc1 | 121
23 | CCCCCCCCCCOc1ccc(C(C)=O)cc1 | 35 to 37
24 | CCc1c[nH]c(=O)[nH]c1=O | 309
25 | O=C(OCC1c2ccccc2-c2ccccc21)Oc1c(F)c(F)c(F)c(F)c1F | 85
26 | Cc1ccc(C(=O)C2=NOC3C(=O)N(c4ccc(C(=O)O)cc4)C(=O)C23)cc1 (stereo not drawn) | 201
27 | O=C(Cc1ccccc1)c1cc2c(cc1Br)OCCO2 | 142 to 144
28 | CCCCCCCCN1CCCC1=O | -25
29 | CCCCOC(=O)CC(C)=O | -35.6
30 | CC1(C)C2CCC1(C)C(N=C1C(=O)Nc3ccccc31)C2N=C1C(=O)Nc2ccccc21 (stereo not drawn) | 234
31 | CN1CC(C(=O)NC2(C)OC3(O)C4CCCN4C(=O)C(Cc4ccccc4)N3C2=O)C=C2c3cccc4[nH]cc(c34)CC21 (stereo not drawn) | 214
32 | Oc1ccccc1N1CCCCC1 | 75
33 | CCCc1ccccn1 | 2
34 | CC(C)CCC#N | -51
35 | O=C1OC(c2ccccc2)=NC1=Cc1ccc(-c2ccccc2)o1 | 142 to 143
36 | CC12CCC3c4ccc(OC(=O)N(CCCl)CCCl)cc4CCC3C1CCC2O (stereo not drawn) | 104
37 | N#CC(=C1CCCC1)c1nc2ccccc2s1 | 235
38 | ON=C1CCCc2c1nc(-c1ccccc1)n2O | 270 to 272

Row | Compound | melting point [°C]
39 | O=S1(=O)OC(Cl)c2ccccc21 (stereo not drawn) | 110 to 116
40 | CC(C)OC(C)(C)C | -88
41 | O=[N+]([O-])c1ccc(O)c2ncccc12 | 180
42 | N[C@@H](c1ccccc1)c1c(O)ccc2ccccc12 | 133 to 137
43 | COc1ccc(-c2ccc(S(=O)(=O)NC(C(=O)O)C(C)C)cc2)cc1 (stereo not drawn) | 178
44 | Cc1ccc(O[Si]23OCCN(CCO2)CCO3)cc1 | 188
45 | CCCCC(C)O (stereo not drawn) | -23
46 | O=C(O)C1Cc2ccccc2O1 (stereo not drawn) | 117 to 118
47 | Cc1c(CCl)cccc1[N+](=O)[O-] | 42 to 47
48 | O=C(O)CC1CC(=O)OC1C(=O)O (stereo not drawn) | 159
49 | CN1CCC(CN2c3ccccc3Sc3ccccc32)C1 (stereo not drawn) | 87
50 | O=C(O)C=C1OC(=O)c2ccccc21 | 287 to 290
51 | CC1(C)N=C(N)C(C)(C)N1O | 225 to 228
52 | C[C@H](O)c1ccccc1Br | 56 to 58
53 | Brc1cccc(Br)c1 | -7
54 | O=C(C1=NOC2C(=O)N(c3cccc([N+](=O)[O-])c3)C(=O)C12)c1cccc2ccccc12 (stereo not drawn) | 191
55 | CCOC(=O)CNc1nc(N)n[nH]1 | 177 to 179
56 | O=C(O)CCCn1c(C(F)(F)F)nc2ccccc21 | 143 to 145
57 | CC12CCC(O)CC1CCC1C2C(O)CC2(C)C1CCC2(O)C(=O)CO (stereo not drawn) | 244

Second part, the compound after the results:

Row | melting point [°C] | Compound
58 | 50 | N#Cc1cccc(S(=O)(=O)Cl)c1
59 | 92 | Cc1c(CCl)c(C)c2c(c1CCl)CC2
60 | 43 to 46 | N#Cc1cc(F)cc(Br)c1
61 | 195 | NNC(=O)c1ccc(N)cc1O
62 | 127 | Nc1cc(F)ccc1-n1ccnc1
63 | 41 to 44 | Cc1oc(C(C)(C)C)cc1C(=O)Cl
64 | 150 | O=C(O)Cc1cn(-c2ccccc2)nc1-c1ccc(Cl)cc1
65 | 166 to 167 | Nc1nc(Cl)c2ncn(C3OC(CO)C(O)C3O)c2n1 (stereo not drawn)
66 | 81 | ClC1=CC(c2ccccc2)c2ccccc21 (stereo not drawn)
67 | 126 | NS(=O)(=O)c1c(F)cc(F)cc1Br
68 | 91 | Brc1ccc2[nH]ccc2c1
69 | 300 | O=C(O)c1ccc(-c2ccncc2)cc1
70 | 138 | Nc1ccc(F)cc1O
71 | 29.5 | Nc1ccc(C(F)(F)F)cc1Br
72 | 143 | O=C(O)C=Cc1ccc(F)c(C(F)(F)F)c1
73 | 81 to 85 | N#CC1(c2ccc(Cl)cc2Cl)CC1
74 | 233 to 234 | O=C(O)c1cc2cc(Br)ccc2s1
75 | 168 | Cc1ccc(-c2cc(NN=c3c(C)nc4ccccc4[nH]c3=O)[nH]n2)cc1

Row | melting point [°C] | Compound
76 | -57 | CC(C)c1ccccc1C(C)C
77 | 118 | N#Cc1ccc(Cl)nc1
78 | 30.5 | CCOC(=O)c1cc2ccccc2o1
79 | 146 to 148 | CC(C)(C)c1cc(N)c(C(N)=O)s1
80 | 35 | Cc1csc2ccc(Cl)cc12
81 | 67 to 68 | Cc1cc(Cl)cc(C=O)c1O
82 | 153 | Cc1c(Br)cc([N+](=O)[O-])c(N)c1C
83 | 189 to 190 | NC(=S)Nc1cccc([N+](=O)[O-])c1
84 | 81 | COC(=O)c1cc([N+](=O)[O-])ccc1Br
85 | 158 to 160 | COC(=O)c1cc2c(s1)-c1cc(Cl)ccc1SC2
86 | -8 | CCc1cccc(N)c1
87 | 143 to 145 | Cc1cc2c(nn1)CCc1nonc1-2
88 | 190 to 192 | O=c1ccc2cc([N+](=O)[O-])ccc2o1
89 | 144 | CC(=O)Oc1cc(C(C)C)c(OCCN(C)C)cc1C
90 | 153 to 155 | Cc1nc(C)c(Br)s1
91 | 274 to 277 | Oc1cc(C(F)(F)F)nc2ccc(C(F)(F)F)cc12
92 | 29 | COc1cccc(C)c1C
93 | 48 | Cc1cc(Cl)cc(C)c1N
